Reference: patent US20240239854A1, “ANTIMICROBIAL PEPTIDES AND MODIFICATIONS THEREOF” (Donald Danforth Plant Science Center, priority 2022, published 2024)
Values after ≈ are worked out from the molar mass of the structure shown. Read-outs that look alike come from different tables or passages of the source. Non-standard residues stand in square brackets, D forms with d. Residues, ends and D or L forms follow the SMILES beside them. No end group written: not given here. Dab = NCC[C@H](N)C(=O)O

Legend:
[1] = system: F. graminearum; settings: in vitro, low cationic conditions; F. graminearum
[2] = system: B. cinerea; settings: for Antifungal activity relative to the wild-type GMA4C_AC control: in vitro, low cationic conditions
[3] = system: Coccidioides sp.; assay type: cell-based; settings: Table 8
[4] = system: Candida albicans; experiment: MIC, CLSI M27/M38, half-strength potato dextrose broth (Example 2); assay type: cell-based; settings: Table 8
[5] = system: Candida auris; experiment: as above; assay type: cell-based; settings: Table 8
[6] = system: C. parapsilosis; experiment: as above; assay type: cell-based, Candida parapsilosis; settings: Table 8; C. parapsilosis ATCC 22019
Description: (§1) MICs were determined at 24-72 hours.

[7] = system: F. solani; experiment: as above; assay type: cell-based; settings: Table 8; Fusarium F4 (F. solani)
Description: as §1

[8] = system: F. oxysporum; experiment: as above; assay type: cell-based; settings: Table 8
Description: as §1

[9] = system: Aspergillus fumigatus; experiment: as above; assay type: cell-based
[10] = system: Candida auris; experiment: Antifungal MIC in RPMI medium; settings: RPMI medium rich in cations
[11] = system: Candida glabrata; experiment: Antifungal MIC in RPMI medium; settings: RPMI medium rich in cations
[12] = system: P. capsici; experiment: Antifungal MIC assay in SFM culture media (Example 1); assay type: cell-based; settings: in vitro, low cationic conditions
[13] = system: F. oxysporum; experiment: as above; assay type: cell-based; settings: in vitro, low cationic conditions; F. oxysporum
[14] = system: Tricophyton rubrum; experiment: MIC against human nail pathogens (Example 2); assay type: cell-based; settings: Table 13
[15] = system: Tricophyton metagrophytes; experiment: MIC against human nail pathogens (Example 2); assay type: cell-based; settings: Table 13
[16] = system: Fusarium graminearum PH-1; assay type: cell-based; settings: MIC Day 1; 96-well plate, resazurin cell viability
[17] = system: Z. tritici; experiment: Wheat - Zymoseptoria tritici in planta spray assay, curative; assay type: in vivo; settings: wheat plants; 48 μM spray 24 hours after Z. tritici spores; 21 dpi
[18] = system: Zymoseptoria tritici IPO323; assay type: cell-based
[19] = system: Botrytis cinerea T4; assay type: cell-based
[20] = system: B. cinerea; experiment: Pepper - Botrytis cinerea in planta spray assay, preventative and curative; assay type: in vivo; settings: pepper plants

CC[C@H](C)[C@H](NC(=O)[C@H](CCCNC(=N)N)NC(=O)[C@@H](NC(=O)[C@H](CS)NC(=O)[C@H](Cc1ccccc1)NC(=O)[C@H](CS)NC(=O)[C@H](CCCNC(=N)N)NC(=O)[C@H](CCCNC(=N)N)NC(=O)[C@H](CCCNC(=N)N)NC(=O)[C@H](Cc1ccccc1)NC(=O)CNC(=O)[C@H](CCCNC(=N)N)NC(=O)[C@H](CS)NC(=O)[C@H](CCCNC(=N)N)NC(=O)CNC(=O)CN)[C@@H](C)O)C(=O)N[C@@H](CS)C(N)=O [GMA4C_V2A] (H-GGRCRGFRRRCFCTRIC-NH2; N-terminus assumed)
Antifungal activity relative to the wild-type GMA4C_AC control [1]: two-fold reduction | Antifungal activity relative to the wild-type GMA4C_AC control ([2]; B. cinerea): two-fold reduction | MIC (μg/ml) 100% ([3]; Coccidioides sp. Cocci 1): 8 µg/mL (≈ 3.91 µM) | MIC (μg/ml) 100% ([3]; Coccidioides sp. Cocci2): 16 µg/mL (≈ 7.82 µM) | MIC (μg/ml) 100% ([3]; Coccidioides sp. DI17-143): 16 µg/mL (≈ 7.82 µM) | MIC (μg/ml) 100% ([4]; Candida albicans ATCC 90028): 16 µg/mL (≈ 7.82 µM) | MIC (μg/ml) 100% ([4]; Candida albicans CA3): 16 µg/mL (≈ 7.82 µM) | MIC (μg/ml) 100% ([4]; Candida albicans SC5314): 16 µg/mL (≈ 7.82 µM) | MIC (μg/ml) 100% ([5]; Candida auris DI17-46): 16 µg/mL (≈ 7.82 µM) | MIC (μg/ml) 100% ([5]; Candida auris DI17-47): 16 µg/mL (≈ 7.82 µM) | MIC (μg/ml) 100% ([5]; Candida auris DI17-48): 16 µg/mL (≈ 7.82 µM) | MIC (μg/ml) 100% [6]: 8 µg/mL (≈ 3.91 µM) | MIC (μg/ml) 100% [7]: 8 µg/mL (≈ 3.91 µM) | MIC (μg/ml) 100% ([8]; Fusarium F1 (F. oxysporum)): 8 µg/mL (≈ 3.91 µM) | MIC (μg/ml) 100% ([8]; Fusarium F2 (F. oxysporum)): 16 µg/mL (≈ 7.82 µM) | MIC (μg/ml) 100% ([9]; Table 8, Aspergillus fumigatus AF293): 32 µg/mL (≈ 15.6 µM)

CC[C@H](C)[C@H](NC(=O)[C@H](CCCNC(=N)N)NC(=O)[C@@H](NC(=O)[C@@H](NC(=O)[C@H](Cc1ccccc1)NC(=O)[C@@H](NC(=O)[C@H](CCCNC(=N)N)NC(=O)[C@H](CCCNC(=N)N)NC(=O)[C@H](CCCNC(=N)N)NC(=O)[C@H](Cc1ccccc1)NC(=O)CNC(=O)[C@H](CCCNC(=N)N)NC(=O)[C@H](CS)NC(=O)[C@H](CCCNC(=N)N)NC(=O)CNC(=O)CN)C(C)C)C(C)C)[C@@H](C)O)C(=O)N[C@@H](CS)C(N)=O [GMA4C_V3A] (H-GGRCRGFRRRVFVTRIC-NH2; N-terminus assumed)
Antifungal activity relative to the wild-type GMA4C_AC control [1]: equivalent | B. cinerea MIC [2]: 1.5 µM | MIC (μM) Botrytis cinerea [2]: 3 µM (≈ 6.12 µg/mL) | MIC Values (μM) against B. cinerea [2]: 3 µM (≈ 6.12 µg/mL) | SFM + 2 mM CaCl2 MIC [2]: >6 µM | SFM + 100 mM KCl MIC [2]: >6 µM | SFM + 100 mM NaCl MIC [2]: 1.5 to 3 µM | SFM MIC [2]: 3 µM | Antifungal activity relative to the wild-type GMA4C_AC control ([2]; B. cinerea): equivalent | Antifungal activity against C. auris [10]: show antifungal activity | Antifungal activity against C. glabrata [11]: show antifungal activity | Antifungal activity relative to the wild-type GMA4C_AC control [12]: equivalent | Antifungal activity relative to the wild-type GMA4C_AC control [13]: equivalent

N=C(N)NCCC[C@H](NC(=O)CNC(=O)[C@@H](N)Cc1ccccc1)C(=O)N[C@@H](CS)C(=O)N[C@@H](CCCNC(=N)N)C(=O)NCC(=O)N[C@@H](Cc1ccccc1)C(=O)N[C@@H](CCCNC(=N)N)C(=O)N[C@@H](CCCNC(=N)N)C(=O)N[C@@H](CCCNC(=N)N)C(=O)N[C@@H](CS)C(=O)N[C@@H](Cc1ccccc1)C(=O)N[C@@H](CS)C(=O)N[C@@H](Cc1c[nH]c2ccccc12)C(=O)N[C@@H](CCCNC(=N)N)C(=O)N[C@@H](Cc1c[nH]c2ccccc12)C(=O)N[C@@H](CS)C(N)=O [GMA4C_V4A] (H-FGRCRGFRRRCFCWRWC-NH2; N-terminus assumed)
Antifungal activity relative to the wild-type GMA4C_AC control [1]: equivalent | Potency relative to GMA4C_AC in presence of cations ([2]; B. cinerea, 100 mM NaCl or 100 mM KCl): 2 fold | Fungal growth inhibition at 6 μM ([2]; B. cinerea, in presence of 2 mM CaCl2, peptide 6 μM): inhibit fungal growth | Antifungal activity relative to the wild-type GMA4C_AC control ([2]; B. cinerea): equivalent | Antifungal activity relative to the wild-type GMA4C_AC control [12]: equivalent | Antifungal activity relative to the wild-type GMA4C_AC control [13]: equivalent

NCC[C@H](NC(=O)CNC(=O)[C@@H](N)Cc1ccccc1)C(=O)N[C@@H](CS)C(=O)N[C@@H](CCN)C(=O)NCC(=O)N[C@@H](Cc1ccccc1)C(=O)N[C@@H](CCN)C(=O)N[C@@H](CCN)C(=O)N[C@@H](CCN)C(=O)N[C@@H](CS)C(=O)N[C@@H](Cc1ccccc1)C(=O)N[C@@H](CS)C(=O)N[C@@H](Cc1c[nH]c2ccccc12)C(=O)N[C@@H](CCN)C(=O)N[C@@H](Cc1c[nH]c2ccccc12)C(=O)N[C@@H](CS)C(N)=O [GMA4C_V5A, FG(Dab)C(Dab)GF(Dab)(Dab)(Dab)CFCW(Dab)WC-NH2] (H-FG[Dab]C[Dab]GF[Dab][Dab][Dab]CFCW[Dab]WC-NH2; N-terminus assumed)
Antifungal activity relative to the wild-type GMA4C_AC control [1]: equivalent | Antifungal activity relative to the wild-type GMA4C_AC control ([2]; B. cinerea): equivalent | Antifungal activity relative to the wild-type GMA4C_AC control [12]: equivalent | Antifungal activity relative to the wild-type GMA4C_AC control [13]: equivalent

OeDef1_V3: OeDef1 variant of Table 13, printed with SEQ ID NO: 769, the number of GMAOe1C_V3 (GACLKNRHSKHYGWFWYYRHCY; not fully specified (C-terminus); cysteine pairing not given here)
MIC Tricophyton rubrum (23014) [14]: 4.0 µM | MIC Tricophyton metagrophytes (26103) [15]: 4.0 µM | MIC Aspergillus fumigatus (36843) ([9]; Table 13): >7.9 µM

PD101.1.1: Nicotiana sylvestris wild-type defensin SEQ ID NO: 624 with an N-terminal alanine, expressed in Pichia pastoris (KLCRRRSKTFSSSCFISEHCDKECKEKEGAKRGMCIKKSIFGRFCYCFHKCK; N-terminal alanine; listed as Nicotiana sylvestris)
F. graminearum PH-1 MIC Day1 [16]: 1.5 µM | Curative protection against Septoria tritici blotch (STB) [17]: reduction of STB disease symptoms | MIC against Z. tritici on day 1 [18]: 0.75 µM | MIC against Z. tritici on day 7 [18]: 1.5 µM | MIC against Z. tritici on day 14 [18]: 1.5 µM | Z. tritici IPO323 MIC Day 1 [18]: 0.75 µM | Z. tritici IPO323 MIC Day 7 [18]: 1.5 µM | Z. tritici IPO323 MIC Day 14 [18]: 1.5 µM | B. cinerea T4 MIC Day1 [19]: 1.5 µM

PD122.1.1: Setaria italica wild-type defensin SEQ ID NO: 715 with an N-terminal alanine, expressed in Pichia pastoris (RRCVSQSHKFVGSCMRKSNCQHVCQTEGFPWGECRFHGGLLRRCFCNKLC; N-terminal alanine; listed as Setaria italica)
F. graminearum PH-1 MIC Day1 [16]: 1.5 µM | Curative protection against gray mold disease ([20]; 24 μM spray 24 hours after B. cinerea spores, 5 dpi): reduction of gray mold disease symptoms | Preventative protection against gray mold disease ([20]; 24 μM spray 24 hours before B. cinerea spores, 96 hpi): reduction of gray mold disease symptoms | Z. tritici IPO323 MIC Day 1 [18]: 0.75 µM | Z. tritici IPO323 MIC Day 7 [18]: 2.5 µM | Z. tritici IPO323 MIC Day 14 [18]: 3 µM | B. cinerea T4 MIC Day1 [19]: 0.75 µM
